Test results published in ChEMBL document CHEMBL1201862, “PubChem BioAssay data set” (2004).
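These data come from cells grown in 96-well plates and exposed to compound for 48 hours at five concentrations. GI50 marks 50% less growth.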 Calls of active or inactive are those of the source. No stated cut-off is given here; in the data, active = GI50 up to about 1.1 µM and inactive = higher.

Experiments:
Experiment in all cases: NCI tumour cell line growth inhibition, 48 h
A498 = tested on: A498
HCT-116 = tested on: HCT-116
HCT-15 = tested on: HCT-15
HOP-62 = tested on: HOP-62
Hs-578T = tested on: Hs-578T
LOX IMVI = tested on: LOX IMVI
MDA-N = tested on: MDA-N
NCI-H226 = tested on: NCI-H226
NCI/ADR-RES = tested on: NCI/ADR-RES
OVCAR-5 = tested on: OVCAR-5
PC-3 = tested on: PC-3
SF-268 = tested on: SF-268
SK-MEL-5 = tested on: SK-MEL-5
SNB-19 = tested on: SNB-19
UO-31 = tested on: UO-31
COLO 205 = tested on: COLO 205
HL-60 = tested on: HL-60
MCF7 = tested on: MCF7
SK-OV-3 = tested on: SK-OV-3
SNB-75 = tested on: SNB-75

**Q.** With `CNC(Cc1ccccc1)c1cccc(OC)c1O` (stereo unspecified) as the compound, how does the GI50 (A498) read?
**A.** > 100 µM (inactive)

**Q.** And the GI50 (HCT-116)?
**A.** > 100 µM (inactive)

**Q.** What about the GI50 (HCT-15) of the same compound?
**A.** > 100 µM

**Q.** What about the GI50 (HOP-62) of the same compound?
**A.** > 100 µM (inactive)

**Q.** What about the GI50 (Hs-578T) of the same compound?
**A.** > 100 µM (inactive)

**Q.** What about the GI50 (LOX IMVI) of the same compound?
**A.** > 100 µM (inactive)

**Q.** What about the GI50 (MDA-N) of the same compound?
**A.** 99.3 µM (inactive)

**Q.** What about the GI50 (NCI-H226) of the same compound?
**A.** > 100 µM (inactive)

**Q.** And the GI50 (NCI/ADR-RES)?
**A.** > 100 µM (inactive)

**Q.** What about the GI50 (OVCAR-5) of the same compound?
**A.** > 100 µM (inactive)

**Q.** And the GI50 (PC-3)?
**A.** 60.7 µM (inactive)

**Q.** And the GI50 (SF-268)?
**A.** > 100 µM (inactive)

**Q.** What about the GI50 (SK-MEL-5) of the same compound?
**A.** > 100 µM (inactive)

**Q.** And the GI50 (SNB-19)?
**A.** > 100 µM (inactive)

**Q.** And the GI50 (UO-31)?
**A.** > 100 µM (inactive)

**Q.** For `Nc1ccc(SC23CC4CC(CC(C4)C2)C3)cc1`, which GI50 (A498) is on record?
**A.** > 100 µM (inactive)

**Q.** What about the GI50 (COLO 205) of the same compound?
**A.** > 100 µM (inactive)

**Q.** What about the GI50 (HCT-116) of the same compound?
**A.** > 100 µM (inactive)

**Q.** What about the GI50 (HCT-15) of the same compound?
**A.** > 100 µM

**Q.** And the GI50 (HL-60)?
**A.** > 100 µM (inactive)

**Q.** And the GI50 (HOP-62)?
**A.** > 100 µM (inactive)

**Q.** What about the GI50 (Hs-578T) of the same compound?
**A.** > 100 µM (inactive)

**Q.** And the GI50 (LOX IMVI)?
**A.** > 100 µM (inactive)

**Q.** What about the GI50 (MCF7) of the same compound?
**A.** 61.8 µM (inactive)

**Q.** What about the GI50 (NCI-H226) of the same compound?
**A.** < 0.01 µM (active)

**Q.** And the GI50 (NCI/ADR-RES)?
**A.** > 100 µM (inactive)

**Q.** What about the GI50 (OVCAR-5) of the same compound?
**A.** > 100 µM (inactive)

**Q.** And the GI50 (PC-3)?
**A.** > 100 µM (inactive)

**Q.** And the GI50 (SF-268)?
**A.** 54.5 µM (inactive)

**Q.** And the GI50 (SK-MEL-5)?
**A.** > 100 µM (inactive)

**Q.** And the GI50 (SK-OV-3)?
**A.** > 100 µM (inactive)

**Q.** What about the GI50 (SNB-19) of the same compound?
**A.** > 100 µM (inactive)

**Q.** What about the GI50 (UO-31) of the same compound?
**A.** > 100 µM (inactive)

**Q.** Which results are given for `O=c1c2ccccc2[nH]c2c(Cl)cc(Cl)c(NC3CCCCC3)c12`?
**A.** GI50 (A498): 19.4 µM (inactive); GI50 (COLO 205): 31.8 µM (inactive); GI50 (HCT-116): 38.5 µM (inactive); GI50 (HCT-15): 30.1 µM; GI50 (HL-60): 18.2 µM (inactive); GI50 (HOP-62): 20.7 µM (inactive); GI50 (LOX IMVI): 36.5 µM (inactive); GI50 (MCF7): 18.7 µM (inactive); GI50 (MDA-N): 33.3 µM (inactive); GI50 (NCI-H226): 21.6 µM (inactive); GI50 (NCI/ADR-RES): 18.5 µM (inactive); GI50 (OVCAR-5): 20.1 µM (inactive); GI50 (PC-3): 22.8 µM (inactive); GI50 (SK-MEL-5): 36.3 µM (inactive); GI50 (SK-OV-3): 32.2 µM (inactive); GI50 (SNB-19): 13.2 µM (inactive); GI50 (SNB-75): 27.2 µM (inactive); GI50 (UO-31): 15.3 µM (inactive)

**Q.** For `CCCCNC(=S)Nc1nc(C(=O)NNC(=S)NCc2ccccc2)cs1`, which GI50 (A498) is on record?
**A.** > 100 µM (inactive)

**Q.** What about the GI50 (COLO 205) of the same compound?
**A.** 33.9 µM (inactive)

**Q.** And the GI50 (HCT-116)?
**A.** 32.9 µM (inactive)

**Q.** What about the GI50 (HCT-15) of the same compound?
**A.** 10.2 µM

**Q.** What about the GI50 (HOP-62) of the same compound?
**A.** > 100 µM (inactive)

**Q.** And the GI50 (LOX IMVI)?
**A.** 18.7 µM (inactive)

**Q.** And the GI50 (MCF7)?
**A.** 12.3 µM (inactive)

**Q.** And the GI50 (MDA-N)?
**A.** 39.9 µM (inactive)

**Q.** What about the GI50 (NCI-H226) of the same compound?
**A.** 32.9 µM (inactive)

**Q.** And the GI50 (NCI/ADR-RES)?
**A.** 30.1 µM (inactive)

**Q.** What about the GI50 (OVCAR-5) of the same compound?
**A.** > 100 µM (inactive)

**Q.** What about the GI50 (PC-3) of the same compound?
**A.** 62.1 µM (inactive)

**Q.** What about the GI50 (SF-268) of the same compound?
**A.** 20.6 µM (inactive)

**Q.** And the GI50 (SK-MEL-5)?
**A.** 16.3 µM (inactive)

**Q.** And the GI50 (SK-OV-3)?
**A.** 88.5 µM (inactive)

**Q.** And the GI50 (UO-31)?
**A.** 23.9 µM (inactive)

**Q.** For `CSC1=Nc2ccccc2-c2nc(-c3ccccc3)cc(-c3ccccc3)c2C1`, which GI50 (A498) is on record?
**A.** 9.93 µM (inactive)

**Q.** And the GI50 (COLO 205)?
**A.** 55 µM (inactive)

**Q.** And the GI50 (HCT-116)?
**A.** 5.16 µM (inactive)

**Q.** What about the GI50 (HCT-15) of the same compound?
**A.** 31.6 µM

**Q.** What about the GI50 (HL-60) of the same compound?
**A.** > 100 µM (inactive)

**Q.** What about the GI50 (HOP-62) of the same compound?
**A.** 19.8 µM (inactive)

**Q.** And the GI50 (LOX IMVI)?
**A.** 23.2 µM (inactive)

**Q.** What about the GI50 (MDA-N) of the same compound?
**A.** 26.5 µM (inactive)

**Q.** And the GI50 (NCI-H226)?
**A.** 87.9 µM (inactive)

**Q.** What about the GI50 (NCI/ADR-RES) of the same compound?
**A.** 19.7 µM (inactive)

**Q.** And the GI50 (OVCAR-5)?
**A.** 33 µM (inactive)

**Q.** And the GI50 (PC-3)?
**A.** 21.4 µM (inactive)

**Q.** And the GI50 (SK-MEL-5)?
**A.** 16.6 µM (inactive)

**Q.** What about the GI50 (SK-OV-3) of the same compound?
**A.** 12.2 µM (inactive)

**Q.** And the GI50 (SNB-19)?
**A.** 6.4 µM (inactive)

**Q.** What about the GI50 (SNB-75) of the same compound?
**A.** 4.26 µM (inactive)

**Q.** What about the GI50 (UO-31) of the same compound?
**A.** 23.5 µM (inactive)

**Q.** `Cc1c(N2C(=O)C(Cl)C2/C=C/c2ccccc2)c(=O)n(-c2ccccc2)n1C` (stereo unspecified) was tested. Which GI50 (COLO 205) did it give?
**A.** 14.1 µM (inactive)

**Q.** What about the GI50 (HCT-116) of the same compound?
**A.** 16.9 µM (inactive)

**Q.** What about the GI50 (HL-60) of the same compound?
**A.** 20.1 µM (inactive)

**Q.** What about the GI50 (HOP-62) of the same compound?
**A.** 22.8 µM (inactive)

**Q.** And the GI50 (LOX IMVI)?
**A.** 17.3 µM (inactive)

**Q.** What about the GI50 (MCF7) of the same compound?
**A.** 24.7 µM (inactive)

**Q.** What about the GI50 (MDA-N) of the same compound?
**A.** 14.4 µM (inactive)

**Q.** And the GI50 (NCI-H226)?
**A.** 25.1 µM (inactive)

**Q.** And the GI50 (NCI/ADR-RES)?
**A.** > 100 µM (inactive)

**Q.** What about the GI50 (OVCAR-5) of the same compound?
**A.** 43.9 µM (inactive)

**Q.** And the GI50 (PC-3)?
**A.** 31.6 µM (inactive)

**Q.** What about the GI50 (SF-268) of the same compound?
**A.** 29.6 µM (inactive)

**Q.** What about the GI50 (SK-MEL-5) of the same compound?
**A.** 15.8 µM (inactive)

**Q.** And the GI50 (SK-OV-3)?
**A.** 32 µM (inactive)

**Q.** And the GI50 (SNB-75)?
**A.** 34.1 µM (inactive)

**Q.** What about the GI50 (UO-31) of the same compound?
**A.** 28.1 µM (inactive)

**Q.** What does the source list for `COc1cc(CC(C)=O)cc(OC)c1`?
**A.** GI50 (A498): 35 µM (inactive); GI50 (COLO 205): > 100 µM (inactive); GI50 (HCT-116): 50.6 µM (inactive); GI50 (HCT-15): 31.6 µM; GI50 (HL-60): 27.3 µM (inactive); GI50 (HOP-62): > 100 µM (inactive); GI50 (MCF7): 34.2 µM (inactive); GI50 (MDA-N): 27.4 µM (inactive); GI50 (NCI-H226): 50.9 µM (inactive); GI50 (NCI/ADR-RES): 52.4 µM (inactive); GI50 (OVCAR-5): > 100 µM (inactive); GI50 (PC-3): 11.3 µM (inactive); GI50 (SF-268): 71.1 µM (inactive); GI50 (SK-MEL-5): 91.2 µM (inactive); GI50 (SK-OV-3): > 100 µM (inactive); GI50 (SNB-19): > 100 µM (inactive); GI50 (SNB-75): 17.9 µM (inactive); GI50 (UO-31): 32.6 µM (inactive)

**Q.** `C[C@H]1C(OCCOC2O[C@@H]3O[C@@]4(C)CC[C@H]5[C@H](C)CCC([C@H]2C)[C@@]35O4)O[C@@H]2O[C@@]3(C)CC[C@H]4[C@H](C)CCC1[C@@]24O3` (stereo partly specified) was tested. Which GI50 (A498) did it give?
**A.** 46.7 µM (inactive)

**Q.** And the GI50 (COLO 205)?
**A.** 16.7 µM (inactive)

**Q.** And the GI50 (HCT-116)?
**A.** 21 µM (inactive)

**Q.** What about the GI50 (HCT-15) of the same compound?
**A.** 28.2 µM

**Q.** And the GI50 (HL-60)?
**A.** 24.9 µM (inactive)

**Q.** And the GI50 (HOP-62)?
**A.** 37.7 µM (inactive)

**Q.** What about the GI50 (LOX IMVI) of the same compound?
**A.** 23.7 µM (inactive)

**Q.** And the GI50 (MCF7)?
**A.** 37 µM (inactive)

**Q.** And the GI50 (MDA-N)?
**A.** 38.7 µM (inactive)

**Q.** And the GI50 (NCI-H226)?
**A.** 28.2 µM (inactive)

**Q.** And the GI50 (NCI/ADR-RES)?
**A.** 25.1 µM (inactive)

**Q.** What about the GI50 (OVCAR-5) of the same compound?
**A.** 50.7 µM (inactive)

**Q.** What about the GI50 (PC-3) of the same compound?
**A.** 28.5 µM (inactive)

**Q.** And the GI50 (SF-268)?
**A.** 50.5 µM (inactive)

**Q.** What about the GI50 (SK-MEL-5) of the same compound?
**A.** 15.3 µM (inactive)

**Q.** What about the GI50 (SK-OV-3) of the same compound?
**A.** 74.6 µM (inactive)

**Q.** What about the GI50 (SNB-19) of the same compound?
**A.** 33.9 µM (inactive)

**Q.** And the GI50 (SNB-75)?
**A.** 25.9 µM (inactive)
